These results are taken from patent US11110084B2, “Opioid formulations” (Camurus AB, priority 2012, dated 2021).

The conditions of the series: disodium fluorescein 5 mg/g, 0.1 g in 2 ml PBS.

`O=C([O-])c1ccccc1-c1c2ccc(=O)cc-2oc2cc([O-])ccc12.[Na+].[Na+]` [Fluo, disodium fluorescein]: the “% release (37° C.) 72 h” value is “about 0.4%”.
